From patent publication US10899773B2 (priority 2014, dated 2021)

Legend:
Experiment in all cases: cells
Assay type in all cases: cell-based
[1] = system: MES SA DX; settings: Homo sapiens, 72 h, read-out: MES SA DX IC50 nM
[2] = system: 293T; settings: Homo sapiens, HEK-293T, 72 h, read-out: 293T IC50 nM
[3] = system: MES SA; settings: Homo sapiens, 72 h, read-out: MES SA IC50 nM

For `COc1c2c(c(O)c3c4c(c(C)cc13)C1C3OC5(C(OC)OC)OC15[C@]1(CO1)[C@]3(O)O4)C(=O)[C@@H](O)C[C@@H]2OC1CC(C)(O)C(OC(C)=O)C(C)O1` (stereo partly drawn) [Trox12], the IC50 [1] was over 1000 nM, the IC50 [2] was 14.9 nM and the IC50 [3] was 18.1 nM.
Work on `COc1c2c(c(O)c3c4c(c(C)cc13)C1C3OC5(C(OC)OC)OC15[C@]1(CO1)[C@]3(OC1CC(OC(C)=O)C(O)(C(C)=O)C(C)O1)O4)C(=O)[C@@H](O)C[C@@H]2O` (stereo partly drawn) [Trox15] yielded an IC50 [1] of over 1000 nM, an IC50 [2] of 95.4 nM and an IC50 [3] of 157 nM.
In the case of `COc1c2c(c(O)c3c4c(c(C)cc13)C1C3OC5(C(OC)OC)OC15[C@]1(CO1)[C@]3(OC1CC(O)C(O)(C(C)=O)C(C)O1)O4)C(=O)[C@@H](O)C[C@@H]2OC1CC(C)(O)C(O)C(C)O1` (stereo partly drawn) [Trox14], the IC50 [1] is reported as over 1000 nM, the IC50 [2] is reported as 8.02 nM and the IC50 [3] is reported as 11.1 nM.
For `COc1c2c(c(O)c3c4c(c(C)cc13)C1C3OC5(C(OC)OC)OC15[C@]1(CO1)[C@]3(OC1CC(OC(C)=O)C(O)(C(C)=O)C(C)O1)O4)C(=O)[C@@H](O)C[C@@H]2OC1CC(C)(O)C(OC(C)=O)C(C)O1` (stereo partly drawn) [Trox16], the IC50 [1] was over 1000 nM, the IC50 [2] was 2.81 nM and the IC50 [3] was 2.02 nM.
Work on `COc1c2c(c(O)c3c4c(c(C)cc13)C1C3OC5(C(OC)OC)OC15[C@]1(CO1)[C@]3(OC1CC(O)C(O)(C(C)=O)C(C)O1)O4)C(=O)[C@@H](O)C[C@@H]2OC1CC(C)(O)C(OC(C)=O)C(C)O1` (stereo partly drawn) [Trox13] yielded an IC50 [1] of 204 nM, an IC50 [2] of 0.702 nM and an IC50 [3] of 0.74 nM.
